The results in this text go back to BindingDB's records for doi:10.7270/Q2Z899TZ (Columbia University Molecular Screening Center, 2007).

Broadly, the IC50 is the midpoint of a concentration-inhibition curve.

The experiment deals with T1, Tyrosine-protein phosphatase non-receptor type 22 (Homo sapiens, UniProt Q9Y2R2).
T1 sequence (Q9Y2R2 whole entry): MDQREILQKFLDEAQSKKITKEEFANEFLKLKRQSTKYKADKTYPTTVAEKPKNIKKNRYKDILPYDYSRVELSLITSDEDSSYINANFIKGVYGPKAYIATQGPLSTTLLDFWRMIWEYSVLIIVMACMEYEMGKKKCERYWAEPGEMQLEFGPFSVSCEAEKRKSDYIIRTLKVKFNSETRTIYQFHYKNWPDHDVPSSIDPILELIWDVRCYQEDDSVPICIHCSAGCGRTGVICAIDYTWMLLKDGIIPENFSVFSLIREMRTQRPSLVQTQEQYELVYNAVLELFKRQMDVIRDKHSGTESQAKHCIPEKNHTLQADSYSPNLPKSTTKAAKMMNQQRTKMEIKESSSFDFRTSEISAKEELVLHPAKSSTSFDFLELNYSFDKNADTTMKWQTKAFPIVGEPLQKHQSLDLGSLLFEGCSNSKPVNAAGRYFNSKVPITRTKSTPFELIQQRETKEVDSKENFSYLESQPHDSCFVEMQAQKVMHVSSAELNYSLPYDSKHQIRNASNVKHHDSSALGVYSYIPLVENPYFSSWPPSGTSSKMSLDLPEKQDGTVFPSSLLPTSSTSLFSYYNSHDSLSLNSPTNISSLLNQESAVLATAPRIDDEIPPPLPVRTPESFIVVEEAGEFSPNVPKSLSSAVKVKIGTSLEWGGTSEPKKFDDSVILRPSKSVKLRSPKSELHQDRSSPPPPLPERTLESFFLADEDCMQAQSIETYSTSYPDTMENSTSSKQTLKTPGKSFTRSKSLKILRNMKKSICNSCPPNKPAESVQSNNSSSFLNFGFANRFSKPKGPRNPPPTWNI
As to the kind of experiment: inhibition of human PTPN22 tyrosine phosphatase – biochemical, DiFMUP fluorescence, recombinant catalytic domain, 10 µM, primary screen (AID 606).
As for `Cc1ccc2c(c1C)NC(C(=O)O)C1CC=CC21` (stereo unspecified), the IC50 worked out at 940 nM.
With `CCn1nc(-c2ccccc2)nc2c(=O)n(C)c(=O)nc1-2` [1-Ethyl-6-methyl-3-phenyl-1H-pyrimido[5,4-e][1,2,4]triazine-5,7-dione], the IC50 was found to be 1660 nM.
For `CC(C)Cn1c(N)c(C(=O)COC(=O)c2cc(-c3ccco3)nc3ccccc23)c(=O)n(C)c1=O` [2-(2-furanyl)-4-quinolinecarboxylic acid [2-[4-amino-1-methyl-3-(2-methylpropyl)-2,6-dioxo-5-pyrimidinyl]-2-oxoethyl] ester], the IC50 came out at 5810 nM.
Take `CCCCC[C@H](O)C=C[C@H]1C=CC(=O)[C@@H]1C/C=C\CCCC(=O)O` [(Z)-7-[(1R,5S)-2-oxidanylidene-5-[(E,3S)-3-oxidanyloct-1-enyl]cyclopent-3-en-1-yl]hept-5-enoic acid]: the IC50 came to 6690 nM.
Under `O=C1C=Cc2ccccc2/C1=C/NC12CN3CCN(CN(C3)C1)C2` [MLS000071484] stands above 40000 nM; under `COc1ccc(Cn2c(C)nc3c(c2=O)c2nc4ccccc4nc2n3Cc2ccco2)cc1` [MLS000079944], 1780 nM.
